From patent US9310660B2, “Organic compound and electrochromic element including the same” (CANON KABUSHIKI KAISHA, priority 2013, dated 2016)

Columns and labels:
[1] = Ultraviolet and visible absorption spectrum in chloroform; format: physicochemical; conditions: dissolved in chloroform, neutralized state
Experimental: The resulting exemplified compound A-1 was dissolved in chloroform. The absorption spectrum of the solution was measured with an ultraviolet and visible spectrometer (V-560, manufactured by JASCO Corp.) and is shown in FIG. 2.
The resulting exemplified compound B-1 was dissolved in chloroform. The absorption spectrum of the solution was measured as in Example 1.

[2] = Solubility in propylene carbonate; format: physicochemical; conditions: organic solvent or mixture
Experimental: The solubilities of three compounds: Compound A-1 prepared in Example 1, Compound B-1 prepared in Example 2, and pyridinium salt precursor Ref-1 of Compound A-1 as a comparative example, in propylene carbonate, a solvent for an EC element, were measured.
Compound Ref-1 as a comparative example has a structure in which the pyridinium salt moiety of Compound A-1 is replaced by a non-ionized structure, a pyridyl group. The molecular structure is shown below.

Row | Structure (SMILES) | maximum absorption peak λmax [1] [nm] | solubility [2] [mM]
1 | Cc1cc(C)c(-c2cc3sc4cc(-c5cccc(-c6cc[n+](Cc7ccccc7)cc6)c5)sc4c3s2)c(C)c1 [Compound A-1] | 355.5 | ≥ 300
2 | Cc1c(-c2cccc(-c3cc[n+](Cc4ccccc4)cc3)c2)sc(-c2cccc(-c3cc[n+](Cc4ccccc4)cc3)c2)c1C [Compound B-1] | 311.5 | ≥ 75
3 | Cc1cc(C)c(-c2cc3sc4cc(-c5cccc(-c6ccncc6)c5)sc4c3s2)c(C)c1 [Ref-1, reference compound] |  | ≤ 8
